Measured values reported in PubChem BioAssay AID1919017 (Molecular Pharmacology Branch, DTP, NCI, 2023).
Values joined by “and” are separate entries in the source; they are usually repeats but may differ in a detail not shown here. Equal values may be shown once.

Tested on: SW1271 complex spheroids with HUVEC/MSC, growth, % test/control
Experiment: Anticancer human tumor SW1271 cell line growth inhibition [AhR];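 also: spheroids exposed to agents for 7 days before readout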
Settings: for viability, T/C: stronger effect = lower value
Description: Multicellular complex tumor spheroid response to aryl hydrocarbon receptor antagonists in combination with a variety of drugs and investigational agents in selected tumor cell lines
The current study was undertaken to assess response to aryl hydrocarbon receptor antagonists in combination with standard-of-care drugs and investigational agents in solid tumor complex spheroid models. Complex spheroids include a stromal component modeled by human endothelial cells (HUVEC) and fibroblasts modeled by human mesenchymal stem cells (MSCs). The concentration ranges selected for each drug and investigational agent were based upon clinically achievable concentrations if the clinical Cmax of the agent was known.
Compounds. The drugs and investigational agents: BAY 2416964 (NSC825713), GNF351 (NSC835774), CH-223191 (NSC835775), CPI-455 (NSC825282), aza-TdCyd (NSC777586), decitabine (NSC127716), belinostat (NSC758774), entinostat (NSC756642), pevonedistat (NSC761192), tazemetostat (NSC777109), talazoparib (NSC765396), olaparib (NSC753686), selinexor (NSC780203), nedisertib (M3814, NSC802822), bortezomib (NSC756655), venetoclax (NSC766270), doxorubicin (NSC123127), elimusertib (BAY189344, NSC800525), ceralasertib (AZD6738, NSC777638), TAK-243 (NSC785004), alisertib (NSC759677), etoposide (NSC141540), topotecan (NSC609699), eribulin (NSC707389), gemcitabine (NSC613327), carboplatin (NSC241240), cisplatin (NSC119875), and SN-38 (NSC673596) were obtained from the National Cancer Institute (NCI) Developmental Therapeutics Program Chemical Repository (32). The FDA-approved anticancer drug set is available from the Developmental Therapeutics Program at https://dtp.cancer.gov/organization/dscb/obtaining/available plates.htm. […] The stock solutions were prepared in dimethyl sulfoxide (DMSO, Sigma-Aldrich, St. Louis, MO, cat. D2650), except for the platinum compounds which were prepared in saline (Quality Biological, Gaithersburg, MD, cat. 114-055-101), at 800-fold the tested concentration and stored at -70 degrees C prior to their use. All drugs and investigational agents were tested over a range starting from a high concentration at or near the clinical Cmax and decreasing in half-log increments. If the clinical Cmax for an agent had not been determined, the highest concentration tested was 10 microM (Table 1).
Cell Culture. All cells were maintained in an incubator at 37 degrees C and 5% CO2 with 95% humidity. The PDC lines were cultured according to standard operating procedures established by the NCI PDMR (https://pdmr.cancer.gov). Briefly, all PDCs were thawed and cultured in Matrigel-coated flasks prepared with a working solution of 1X Ham's F-12 nutrient mix, without supplementation (Invitrogen, Waltham, MA, cat. 11765054), 100 U/mL penicillin-streptomycin (Invitrogen, cat. 15140122), and 2.5% Matrigel (Corning Inc., Corning, NY, cat. 354248) for the first three passages. All PDCs were cultured in complete DMEM/F-12 media containing advanced DMEM/F-12 (Invitrogen, cat. 12634028), 4.9% defined fetal bovine serum, heat inactivated (HyClone Laboratories Inc., Logan, UT, cat. SH30070.03HI), 389 ng/mL hydrocortisone (Sigma-Aldrich, cat. H4001), 9.7 ng/mL human EGF recombinant protein (Invitrogen, cat. PHG0313), 23.4 microg/mL adenine (Sigma-Aldrich, cat. A2786), 97.3 U/mL penicillin-streptomycin (Invitrogen, cat. 15140122), 1.9 mM L-glutamine (Invitrogen, cat. 25030081), and 9.7 microM Y-27632 dihydrochloride (Tocris Bioscience, Bristol, United Kingdom, cat. 1254). The PDCs were cultured in complete DMEM/F12 media without 10 microM Y-27632 dihydrochloride for at least two passages prior to the screen. The established cell lines NCI-H1341 and […] were cultured in DMEM/F-12, HEPES (Invitrogen, cat. 11330032), 5% defined fetal bovine serum (HyClone Laboratories Inc., cat. SH30070.03), ITS premix universal culture supplement [insulin (5 microg/mL), transferrin (5 microg/mL), and selenious acid (5 ng/mL)] […]

| Structure (SMILES) | IC50 (curve of compound) | viability, T/C (compound 0.0316 µM) | viability, T/C (compound 0.1 µM) | viability, T/C (compound 0.316 µM) | viability, T/C (compound 1 µM) | viability, T/C (compound 3.16 µM) | viability, T/C (compound 10 µM) | further results |
| --- | --- | --- | --- | --- | --- | --- | --- | --- |
| CC(C)CC(NC(=O)C(Cc1ccccc1)NC(=O)c1cnccn1)B(O)O (stereo unspecified) | 5.23 nM and 5.07 nM and 4.06 nM |  |  |  |  |  |  | viability, T/C (compound 0.000949 µM): 97.1% and 109% and 95.8%; viability, T/C (compound 0.003 µM): 89.3% and 86% and 67.3%; viability, T/C (compound 0.00949 µM): 7.81% and 7.15% and 1.46%; viability, T/C (compound 0.03 µM): 0.75% and 0.78% and 0.59%; viability, T/C (compound 0.0949 µM): 0.47% and 0.58% and 0.43%; viability, T/C (compound 0.3 µM): 0.64% and 0.89% and 0.44% |
| CC(C)c1c(-c2ccccc2)nc2c(C#N)c[nH]n2c1=O | > 10000 nM | 110% and 109% and 85.9% | 81.4% and 104% and 86.4% | 121% and 91.8% and 104% | 101% and 92.5% and 93.3% | 110% and 91.8% and 94% | 107% and 91.7% and 85.8% |  |
| CC(CO)NC(=O)c1cc(-c2ccc(Cl)cc2)nn(-c2cnn(C)c2)c1=O (stereo unspecified) |  |  | 94.2% [middle of 20 runs] |  |  |  |  | IC50 (compound alone, run of 08/08/2022): > 10000 nM |
| CC1(C)CCC(CN2CCN(c3ccc(C(=O)NS(=O)(=O)c4ccc(NCC5CCOCC5)c([N+](=O)[O-])c4)c(Oc4cnc5[nH]ccc5c4)c3)CC2)=C(c2ccc(Cl)cc2)C1 | > 10000 nM | 93.6% and 94.9% and 90.9% | 107% and 101% and 97.1% | 104% and 75% and 108% | 92.9% and 102% and 94.2% | 101% and 110% and 105% | 88% and 72.9% and 74.4% |  |
| CC1COCCN1c1cc(-c2ccnn2C)c2ccnc(-c3ccn[nH]3)c2n1 (stereo unspecified) | 294 nM and > 1000 nM and 712 nM | 76.6% and 71.1% and 85.7% | 58.4% and 65.3% and 70.1% | 51.8% and 61.9% and 60.3% | 43.8% and 46.2% and 45.5% |  |  | viability, T/C (compound 0.00316 µM): 95.8% and 99.2% and 91%; viability, T/C (compound 0.01 µM): 90.6% and 102% and 103% |
| CC1COCCN1c1cc(C2(S(C)(=N)=O)CC2)nc(-c2ccnc3[nH]ccc23)n1 (stereo unspecified) | > 10000 nM | 106% and 99.7% and 91.9% | 85.4% and 106% and 103% | 87.8% (2×) and 79.2% | 77.5% and 84% and 73.8% | 80.1% and 69.6% and 68.8% | 59.5% and 70.1% and 51.9% |  |
| CCN(c1cc(-c2ccc(CN3CCOCC3)cc2)cc(C(=O)NCc2c(C)cc(C)[nH]c2=O)c1C)C1CCOCC1 | > 3000 nM |  |  |  |  |  |  | viability, T/C (compound 0.00949 µM): 104% and 90.3% and 94.7%; viability, T/C (compound 0.03 µM): 96.7% and 99.1% and 104%; viability, T/C (compound 0.0949 µM): 86.3% and 110% and 120%; viability, T/C (compound 0.3 µM): 93.2% and 124% and 111%; viability, T/C (compound 0.949 µM): 90.6% and 106% and 125%; viability, T/C (compound 3 µM): 102% and 115% and 107% |
| CC[C@@]1(O)C(=O)OCc2c1cc1n(c2=O)Cc2cc3c(CN(C)C)c(O)ccc3nc2-1 | > 100 nM and 75.4 nM | 89% and 65% and 78.6% | 74.6% and 45.2% and 70% |  |  |  |  | viability, T/C (compound 0.000316 µM): 105% and 80.9% and 102%; viability, T/C (compound 0.001 µM): 108% and 64.1% and 91.1%; viability, T/C (compound 0.00316 µM): 80.9% and 87% and 83.4%; viability, T/C (compound 0.01 µM): 91.5% and 70% and 96.8% |
| CCc1c2c(nc3ccc(O)cc13)-c1cc3c(c(=O)n1C2)COC(=O)[C@]3(O)CC | 177 nM and > 300 nM |  |  |  |  |  |  | viability, T/C (compound 0.000949 µM): 78.1% and 88.3% and 86.2%; viability, T/C (compound 0.003 µM): 79.8% and 97.7% and 79%; viability, T/C (compound 0.00949 µM): 64.6% and 71.7% and 61.4%; viability, T/C (compound 0.03 µM): 67% and 58.3% and 59.9%; viability, T/C (compound 0.0949 µM): 55.6% and 56% and 60.6%; viability, T/C (compound 0.3 µM): 44.9% and 53.3% and 49.2% |
| COc1cc(C2c3cc4c(cc3C(OC3OC5COC(C)OC5C(O)C3O)C3COC(=O)C23)OCO4)cc(OC)c1O (stereo unspecified) |  | 81.3% and 81.6% and 96.4% | 82.5% and 92.6% and 64.2% | 63.9% and 54.3% and 41.1% | 61.9% and 51% and 46.1% | 60.1% and 72.8% and 44.8% | 50.8% and 45.9% and 39.2% |  |
| COc1cc(Nc2ncc3c(n2)-c2ccc(Cl)cc2C(c2c(F)cccc2OC)=NC3)ccc1C(=O)O | 7650 nM and > 10000 nM | 80.7% and 65.3% and 70.4% | 91.2% and 67.1% and 74.3% | 92.5% and 67% and 66.7% | 83.3% and 64.7% and 68.1% | 72.4% and 61.5% and 57.6% | 43.3% and 49% and 51.4% |  |
